According to patent publication US11365192B2, “Pyridine compound substituted with azole” (TAISHO PHARMACEUTICAL CO., LTD., priority 2017, dated 2022):

Columns and labels:
human CYP4F2 = human CYP4F2 (Homo sapiens (Human), UniProt P78329); experiment: Inhibition test against 20-HETE producing enzyme CYP4F2 (luciferine derivative, luminescence); assay type: biochemical; details: E. coli membrane fraction expressing human CYP4F2, 2.5 μM luciferine derivative, room temperature 60 minutes
Procedure: (§1) (1) Inhibition Test for Each Compound of the Present Invention Against 20-HETE Producing Enzymes (CYP4F2 and CYP4A11)
(§2) In the CYP4F2 inhibition test, the reaction solution containing each compound [final concentration of 50 mM, KPO4 (pH 7.4), 2.5 μM luciferine derivative, and 1 mM NADPH] was added to an Escherichia coli membrane fraction (100 μg/mL protein) in which human CYP4F2 had been expressed. In the CYP4A11 inhibition test, the reaction solution containing each compound [final concentration of 100 mM, Tris-HCl (pH 7.5), 60 μM luciferine derivative, 1.3 mM NADP^+, 3.3 mM Glucose 6-Phosphate, 3.3 mM MgCl2, and 0.4 U/mL Glucose 6-Phosphate dehydrogenase] was added to an Escherichia coli membrane fraction (100 μg/mL protein) in which human CYP4A11 had been expressed. Following this, the membrane fraction was left to stand at room temperature for 60 minutes to perform an enzymatic reaction. After the reaction, a luciferine detection reagent was added, and the luminescence value was measured using a plate reader. By using that value, the percent inhibition of 20-HETE producing enzyme (%) was calculated according to the equation described below, and the 50% inhibitory concentration (IC50 value) for each compound was calculated. Percent inhibition of 20-HETE producing enzyme (%)=[1−(A−B)/(C−B)]*100
(§3) A: Luminescence value with addition of compound
(§4) B: Luminescence value without addition of compound and enzyme

human CYP4A11 = human CYP4A11 (Homo sapiens (Human), UniProt Q02928); experiment: Inhibition test against 20-HETE producing enzyme CYP4A11 (luciferine derivative, luminescence); assay type: biochemical; details: E. coli membrane fraction expressing human CYP4A11, 60 μM luciferine derivative, room temperature 60 minutes
human CYP4A11, sequence (Q02928 5-519): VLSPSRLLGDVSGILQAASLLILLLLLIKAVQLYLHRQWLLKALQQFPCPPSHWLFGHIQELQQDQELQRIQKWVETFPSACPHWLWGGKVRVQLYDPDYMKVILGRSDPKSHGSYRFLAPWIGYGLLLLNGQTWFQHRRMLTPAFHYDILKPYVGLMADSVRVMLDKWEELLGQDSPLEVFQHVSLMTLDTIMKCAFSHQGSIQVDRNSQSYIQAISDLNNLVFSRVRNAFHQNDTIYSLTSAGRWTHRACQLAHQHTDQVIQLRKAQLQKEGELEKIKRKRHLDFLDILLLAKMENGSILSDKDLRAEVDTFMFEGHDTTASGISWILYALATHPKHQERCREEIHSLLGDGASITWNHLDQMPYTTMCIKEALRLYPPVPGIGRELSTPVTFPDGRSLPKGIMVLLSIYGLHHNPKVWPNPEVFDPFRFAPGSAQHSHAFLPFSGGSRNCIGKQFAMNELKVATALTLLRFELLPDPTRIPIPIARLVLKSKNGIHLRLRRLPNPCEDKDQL
Procedure: as §1, §2, §3, §4

human CYP4F2, sequence (P78329 5-520): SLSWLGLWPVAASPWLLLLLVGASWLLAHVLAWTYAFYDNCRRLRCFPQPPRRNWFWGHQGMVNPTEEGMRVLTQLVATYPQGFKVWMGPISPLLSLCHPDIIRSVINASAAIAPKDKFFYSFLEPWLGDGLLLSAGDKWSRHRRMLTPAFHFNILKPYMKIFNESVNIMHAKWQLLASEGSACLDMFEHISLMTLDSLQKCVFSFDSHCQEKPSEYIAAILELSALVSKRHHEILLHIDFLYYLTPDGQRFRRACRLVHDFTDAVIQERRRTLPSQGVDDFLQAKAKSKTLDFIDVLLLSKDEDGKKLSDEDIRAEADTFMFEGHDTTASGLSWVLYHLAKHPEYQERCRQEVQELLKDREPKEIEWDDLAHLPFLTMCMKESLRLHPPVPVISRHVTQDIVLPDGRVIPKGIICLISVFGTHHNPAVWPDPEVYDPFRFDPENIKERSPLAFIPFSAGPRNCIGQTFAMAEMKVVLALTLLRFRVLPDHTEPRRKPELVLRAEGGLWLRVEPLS

| SMILES | IC50 (human CYP4F2) [nM] | IC50 (human CYP4A11) [nM] |
| --- | --- | --- |
| O=C(O)Cn1cc(CCCCOc2ccc(-c3ccn[nH]3)nc2)cn1 [Example 8-12] | 5000 | 100 |
| CC(C)(C(=O)O)n1cc(CCCCOc2ccc(-c3ccn[nH]3)nc2)cn1 [Example 8-13] | 8300 | 120 |
| CC(C)(C(=O)O)n1ccc(CCCCOc2ccc(-c3ccn[nH]3)nc2)n1 [Example 8-14] | 11000 | 68 |
| O=C(O)C12CC(COc3ccc(-c4ccn[nH]4)nc3)(C1)C2 [Example 8-17] | 22000 | 520 |
| O=C(O)C12CCC(COc3ccc(-c4ccn[nH]4)nc3)(CC1)CC2 [Example 8-18] | 16000 | 52 |
| O=C(O)CCCCOc1ccc(-c2ccn[nH]2)nc1 [Example 10-1, 5-[[6-(1H-Pyrazol-5-yl)-3-pyridinyl]oxy]pentanoic Acid] | 19000 | 560 |
| O=C(O)CCS(=O)(=O)c1cccc(COc2ccc(-c3ccn[nH]3)nc2)c1 [Example 14-1, 3-[3-[[6-(1H-Pyrazol-5-yl)-3-pyridinyl]oxymethyl]phenyl]sulfonylpropanoic Acid] | 2200 | 30 |
| O=C(O)c1cnn(CCCOc2ccc(-c3ccn[nH]3)nc2)c1 [Example 15-2, 1-[3-[[6-(1H-Pyrazol-5-yl)-3-pyridinyl]oxy]propyl]-4-pyrazolecarboxylic Acid] | 25000 | 690 |
| O=C(O)c1cnn(CCCCOc2ccc(-c3ccn[nH]3)nc2)c1 [Example 15-3] | 6300 | 130 |
| CC(C)(Oc1cccc(COc2ccc(-c3ccn[nH]3)nc2)c1)C(=O)O [Example 18-5] | 5200 | 32 |
| O=C(O)c1cccc(OCCOc2ccc(-c3ccn[nH]3)nc2)c1 [Example 18-6] | 6100 | 310 |
| O=C(O)Cc1ccc(COc2ccc(-c3ccn[nH]3)nc2)cc1 [Example 21-1, 2-[4-[[6-(1H-Pyrazol-5-yl)-3-pyridinyl]oxymethyl]phenyl]acetic Acid] | 15000 | 43 |
| O=C(O)Cc1ccccc1COc1ccc(-c2ccn[nH]2)nc1 [Example 21-2] | > 50000 | 3800 |
| O=C(O)C1(c2cccc(COc3ccc(-c4ccn[nH]4)nc3)c2)CC1 [Example 21-3] | 21000 | 16 |
| CC(C)(CCNS(=O)(=O)c1cccc(COc2ccc(-c3ccn[nH]3)nc2)c1)C(=O)O [Example 21-4] | 1500 | 25 |
| O=C(O)c1cccc(COc2ccc(-c3ccn[nH]3)nc2)c1 [Example 22-2] | 1400 | 42 |
| O=C(O)Cc1cccc(COc2ccc(-c3ccn[nH]3)nc2)c1 [Example 22-3] | 17000 | 16 |
| O=C(O)CCc1cccc(COc2ccc(-c3ccn[nH]3)nc2)c1 [Example 22-4] | 1400 | 20 |
| O=C(O)c1cnc(-c2cccc(COc3ccc(-c4ccn[nH]4)nc3)c2)nc1 [Example 22-5, 2-[3-[[6-(1H-Pyrazol-5-yl)-3-pyridinyl]oxymethyl]phenyl]-5-pyrimidinecarboxylic Acid] | 3100 | 120 |
| O=C(O)c1ccnc(-c2cccc(COc3ccc(-c4ccn[nH]4)nc3)c2)n1 [Example 22-6] | 3100 | 110 |
| O=C(O)C1CCN(S(=O)(=O)c2cccc(COc3ccc(-c4ccn[nH]4)nc3)c2)CC1 [Example 22-8] | 1500 | 68 |
| O=C(O)C1CCN(S(=O)(=O)c2cccc(COc3ccc(-c4ccn[nH]4)nc3)c2)C1 (stereo not drawn) [Example 22-10] | 2000 | 24 |
| O=C(O)C1CN(S(=O)(=O)c2cccc(COc3ccc(-c4ccn[nH]4)nc3)c2)CCO1 (stereo not drawn) [Example 22-12] | 2000 | 53 |
| CC(C)(Oc1cc(COc2ccc(-c3ccn[nH]3)nc2)ccn1)C(=O)O [Example 22-13, 2-Methyl-2-[[4-[[6-(1H-pyrazol-5-yl)-3-pyridinyl]oxymethyl]-2-pyridinyl]oxy]propanoic Acid] | 11000 | 380 |

More lines, in order of falling IC50 (human CYP4F2), values ahead:

| IC50 (human CYP4F2) [nM] | IC50 (human CYP4A11) [nM] | SMILES |
| --- | --- | --- |
| 1400 | 530 | O=C(O)Cn1ccc(CCCCOc2ccc(-c3ccn[nH]3)nc2)cc1=O [Example 8-15] |
| 1400 | 53 | O=C(O)Cn1ncc2cc(COc3ccc(-c4ccn[nH]4)nc3)ccc21 [Example 16-1, 2-[5-[[6-(1H-Pyrazol-5-yl)-3-pyridinyl]oxymethyl]-1-indazolyl]acetic Acid] |
| 1300 | 4500 | NS(=O)(=O)CCCCCOc1ccc(-c2ccn[nH]2)nc1 [Example 11-4, 5-[[6-(1H-Pyrazol-5-yl)-3-pyridinyl]oxy]-1-pentanesulfonamide] |
| 1200 | 38 | O=C(O)c1ncc(-c2cccc(COc3ccc(-c4ccn[nH]4)nc3)c2)cn1 [Example 22-7] |
| 1100 | 1800 | CC(C)(OCCCCOCCCCOc1ccc(-c2ccn[nH]2)nc1)C(=O)O [Example 9-2] |
| 1100 | 23 | O=C(O)COc1cccc(COc2ccc(-c3ccn[nH]3)nc2)c1 [Example 10-2, 2-[3-[[6-(1H-Pyrazol-5-yl)-3-pyridinyl]oxymethyl]phenoxy]acetic Acid] |
| 1100 | 28000 | CS(=O)(=O)c1cc(COc2ccc(-c3ccn[nH]3)nc2)ccc1O [Example 20-1, 2-Methylsulfonyl-4-[[6-(1H-pyrazol-5-yl)-3-pyridinyl]oxymethyl]phenol] |
| 680 | 750 | O=C(O)Cc1cccc(COc2ccc(-c3ccn[nH]3)nc2)n1 [Example 8-16] |
| 510 | 24 | O=C(O)c1cncc(-c2cccc(COc3ccc(-c4ccn[nH]4)nc3)c2)n1 [Example 18-3] |
| 490 | 1400 | CC(C)(OCCCOCCCCOc1ccc(-c2ccn[nH]2)nc1)C(=O)O [Example 9-3] |
| 490 | 22 | O=C(O)c1cnc(-c2cccc(COc3ccc(-c4ccn[nH]4)nc3)c2)cn1 [Example 18-4] |
| 460 | 13 | O=C(O)c1cccc(-c2cccc(COc3ccc(-c4ccn[nH]4)nc3)c2)n1 [Example 18-1, 6-[3-[[6-(1H-Pyrazol-5-yl)-3-pyridinyl]oxymethyl]phenyl]-2-pyridinecarboxylic Acid] |
| 430 | 29 | CN(CCC(C)(C)C(=O)O)S(=O)(=O)c1cccc(COc2ccc(-c3ccn[nH]3)nc2)c1 [Example 21-5] |
| 230 | 12 | O=C(O)c1ccc(-c2cccc(COc3ccc(-c4ccn[nH]4)nc3)c2)nc1 [Example 18-2] |
| 180 | 1400 | CC(C)(C(=O)O)C(=O)N1CCc2ccc(COc3ccc(-c4ccn[nH]4)nc3)cc2C1 [Example 17-1, 2,2-Dimethyl-3-oxo-3-[7-[[6-(1H-pyrazol-5-yl)-3-pyridinyl]oxymethyl]-3,4-dihydro-1H-isoquinolin-2-yl]propanoic Acid] |
| 140 | 15 | O=C(O)/C=C/c1cccc(COc2ccc(-c3ccn[nH]3)nc2)c1 [Example 22-1, (2E)-3-[3-[[[6-(1H-Pyrazol-5-yl)pyridin-3-yl]oxy]methyl]phenyl]-2-propenoic Acid] |
| 69 | 210 | CS(=O)(=O)c1cc(O)cc(COc2ccc(-c3ccn[nH]3)nc2)c1 [Example 20-2] |
| 34 | 610 | Oc1cccc(COc2ccc(-c3ccn[nH]3)nc2)c1 [Example 13-1, 3-[[6-(1H-Pyrazol-5-yl)-3-pyridinyl]oxymethyl]phenol] |
| 25 | 290 | Oc1cc(F)cc(COc2ccc(-c3ccn[nH]3)nc2)c1 [Example 12-3] |
| 22 | 1700 | CS(=O)(=O)NCCCCCCOc1ccc(-c2ccn[nH]2)nc1 [Example 19-1, N-[6-[[6-(1H-Pyrazol-5-yl)-3-pyridinyl]oxy]hexyl]methanesulfonamide] |
| 19 | 520 | Oc1cccc(CCCOc2ccc(-c3ccn[nH]3)nc2)c1 [Example 11-2] |
| 19 | 300 | Oc1cccc(CCOc2ccc(-c3ccn[nH]3)nc2)c1 [Example 13-3] |
| 13 | 400 | Oc1ccccc1CCOc1ccc(-c2ccn[nH]2)nc1 [Example 13-2] |
| 11 | 310 | Oc1cc(COc2ccc(-c3ccn[nH]3)nc2)ccc1F [Example 12-2] |
| 7.3 | 270 | Oc1cc(CCCOc2ccc(-c3ccn[nH]3)nc2)ccc1F [Example 11-3] |
| 6.2 | 260 | Cc1ccc(COc2ccc(-c3ccn[nH]3)nc2)cc1O [Example 12-1, 2-Methyl-5-[[6-(1H-pyrazol-5-yl)-3-pyridinyl]oxymethyl]phenol] |
| 5.1 | 140 | Oc1cc(CCCOc2ccc(-c3ccn[nH]3)nc2)cc(F)c1F [Example 11-1, 2,3-Difluoro-5-[3-[[6-(1H-pyrazol-5-yl)-3-pyridinyl]oxy]propyl]phenol] |
